According to patent US10155781B2, “Co-crystals, salts and solid forms of tenofovir alafenamide” (Gilead Sciences, Inc., priority 2015, dated 2018):
Counter-ions that a name gives are not always drawn.

conditions: solid material, compared by XRPD
Excerpt: Two XRPD systems were used for the characterization of the samples.
(1) Bruker AXS C2 GADDS diffractometer uses Cu Kalpha radiation (40 kV, 40 mA), automated XYZ stage, laser video microscope for auto-sample positioning and a HiStar 2-dimensional area detector. X-ray optics consists of a single Göbel multilayer mirror coupled with a pinhole collimator of 0.3 mm. The beam divergence, i.e. the effective size of the X-ray beam on the sample, was approximately 4 mm. A θ-θ continuous scan mode was employed with a sample-detector distance of 20 cm which gives an effective 20 range of 3.2°-29.7°. Typically the sample was exposed to the X-ray beam for 120 seconds. The software used for data collection was GADDS for XP/2000 4.1.36 and the data was analyzed and presented using Diffrac Plus EVA v13.0.0.2 or v15.0.0.0.
Samples run under ambient conditions were prepared as flat plate specimens using powder as received without grinding. Approximately 1-2 mg of the sample was lightly pressed on a glass slide to obtain a flat surface.
(2) Bruker D8 diffractometer uses Cu Ka radiation (40 kV, 40 mA), θ-2θ goniometer, and divergence of V4 and receiving slits, a Ge monochromator and a Lynxeye detector. The software used for data collection was Diffrac Plus XRD Commander v2.6.1 and the data was analyzed and presented using Diffrac Plus EVA v13.0.0.2 or v15.0.0.0.
Samples were run under ambient conditions as flat plate specimens using powder as received. The sample was gently packed into a cavity cut into polished, zero-background (510) silicon wafer. The sample was rotated in its own plane during analysis. The details of the data collection was: Angular range: 2 to 42° 2θ; Step size: 0.05° 2θ; Collection time: 0.5 s/step
(3) PANanalytical XPERT-PRO diffractometer at ambient conditions under the following experimental settings: 45 KV, 40 mA, Kα1=1.5406 Å, scan range 2 to 40°, step size 0.0084 or 0.0167°, measurement time: 5 min.

Compound	XRPD pattern after storage at 40° C. 75% RH for 14 days (solid form stability)
CC(C)OC(=O)[C@H](C)N[P@](=O)(CO[C@H](C)Cn1cnc2c(N)ncnc21)Oc1ccccc1 [Tenofovir alafenamide methanesulfonate pattern 1]	changed to another form
CC(C)OC(=O)[C@H](C)N[P@](=O)(CO[C@H](C)Cn1cnc2c(N)ncnc21)Oc1ccccc1 [tenofovir alafenamide L-malate, Tenofovir Alafenamide L-Malate]	no change
CC(C)OC(=O)[C@H](C)N[P@](=O)(CO[C@H](C)Cn1cnc2c(N)ncnc21)Oc1ccccc1 [tenofovir alafenamide benzenesulfonate, Tenofovir Alafenamide Benzenesulfonate]	no change
CC(C)OC(=O)[C@H](C)N[P@](=O)(CO[C@H](C)Cn1cnc2c(N)ncnc21)Oc1ccccc1 [tenofovir alafenamide ethanesulfonate, Tenofovir Alafenamide Ethanesulfonate]	no XRPD change
CC(C)OC(=O)[C@H](C)N[P@](=O)(CO[C@H](C)Cn1cnc2c(N)ncnc21)Oc1ccccc1 [tenofovir alafenamide mucate pattern 1, Tenofovir Alafenamide Mucate]	no change
CC(C)OC(=O)[C@H](C)N[P@](=O)(CO[C@H](C)Cn1cnc2c(N)ncnc21)Oc1ccccc1 [tenofovir alafenamide mucate pattern 2, Tenofovir Alafenamide Mucate]	no change
CC(C)OC(=O)[C@H](C)N[P@](=O)(CO[C@H](C)Cn1cnc2c(N)ncnc21)Oc1ccccc1 [tenofovir alafenamide oxalate, Tenofovir Alafenamide Oxalate]	no change in XRPD
CC(C)OC(=O)[C@H](C)N[P@](=O)(CO[C@H](C)Cn1cnc2c(N)ncnc21)Oc1ccccc1 [tenofovir alafenamide saccharin, Tenofovir Alafenamide Saccharin]	same XRPD pattern was obtained

same assay, conditions: solid material, compared by XRPD, Hydrochloride

Compound	XRPD pattern after storage at 40° C. 75% RH for 14 days (solid form stability)
CC(C)OC(=O)[C@H](C)N[P@](=O)(CO[C@H](C)Cn1cnc2c(N)ncnc21)Oc1ccccc1 [tenofovir alafenamide hydrochloride, Tenofovir Alafenamide Hydrochloride]	remained unchanged
